Assay results published in PubChem BioAssay (NCI).
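Interpolation was linear, between the two tested concentrations surrounding the appropriate level; five concentrations were tested over 48 hours in 96-well plates. Here, GI50 denotes the concentration required for 50% inhibition of growth. TGI marks complete inhibition of growth.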

Key:
Experiment in all cases: inhibition of tumour cell growth, NCI panel, 48 h
HCT-116 colon = test system: HCT-116 colon
NCI-H226 lung = test system: NCI-H226 lung
M14 melanoma = test system: M14 melanoma
MALME-3M melanoma = test system: MALME-3M melanoma
UACC-62 melanoma = test system: UACC-62 melanoma
TK-10 renal = test system: TK-10 renal
OVCAR-3 ovarian = test system: OVCAR-3 ovarian
HL-60(TB) leukemia = test system: HL-60(TB) leukemia
CCRF-CEM leukemia = test system: CCRF-CEM leukemia
U251 CNS = test system: U251 CNS
RPMI-8226 leukemia = test system: RPMI-8226 leukemia
HOP-62 NSCLC = test system: HOP-62 NSCLC
MDA-MB-435 = test system: MDA-MB-435
MDA-MB-231 breast = test system: MDA-MB-231 breast
PC-3 prostate = test system: PC-3 prostate
MOLT-4 leukemia = test system: MOLT-4 leukemia
EKVX NSCLC = test system: EKVX NSCLC
COLO 205 colon = test system: COLO 205 colon
A498 renal = test system: A498 renal
SF-295 CNS = test system: SF-295 CNS
ACHN renal = test system: ACHN renal
CAKI-1 renal = test system: CAKI-1 renal
HOP-92 NSCLC = test system: HOP-92 NSCLC
SF-268 CNS = test system: SF-268 CNS
OVCAR-8 ovarian = test system: OVCAR-8 ovarian
K-562 leukemia = test system: K-562 leukemia
T-47D breast = test system: T-47D breast
NCI-H23 lung = test system: NCI-H23 lung
SR leukemia = test system: SR leukemia
BT-549 breast = test system: BT-549 breast
A549 NSCLC = test system: A549 NSCLC
HT29 colon = test system: HT29 colon
UO-31 renal = test system: UO-31 renal
SK-MEL-2 melanoma = test system: SK-MEL-2 melanoma
SK-MEL-28 melanoma = test system: SK-MEL-28 melanoma
SF-539 CNS = test system: SF-539 CNS
HS 578T breast = test system: HS 578T breast
LOX IMVI melanoma = test system: LOX IMVI melanoma
HCC-2998 colon = test system: HCC-2998 colon
SN12C renal = test system: SN12C renal
DU-145 prostate = test system: DU-145 prostate
786-0 renal = test system: 786-0 renal
SW-620 colon = test system: SW-620 colon
SK-MEL-5 melanoma = test system: SK-MEL-5 melanoma
RXF 393 renal = test system: RXF 393 renal
SK-OV-3 ovarian = test system: SK-OV-3 ovarian
NCI-H522 lung = test system: NCI-H522 lung
SNB-75 CNS = test system: SNB-75 CNS
NCI-H460 lung = test system: NCI-H460 lung
OVCAR-5 ovarian = test system: OVCAR-5 ovarian
IGROV1 ovarian = test system: IGROV1 ovarian
UACC-257 melanoma = test system: UACC-257 melanoma
KM12 colon = test system: KM12 colon
HCT-15 colon = test system: HCT-15 colon
OVCAR-4 ovarian = test system: OVCAR-4 ovarian
NCI/ADR-RES ovarian = test system: NCI/ADR-RES ovarian
SNB-19 CNS = test system: SNB-19 CNS
MCF7 breast = test system: MCF7 breast

`CC(=O)c1c(C)c2cnc(Nc3ccc(N4CCNCC4)cn3)nc2n(C2CCCC2)c1=O` gave a GI50 (HCT-116 colon) of 3.07 µM, a TGI (HCT-116 colon) of 16.3 µM and a GI50 (NCI-H226 lung) of 6.07 µM. It also gave a TGI (NCI-H226 lung) of 22.4 µM, a GI50 (M14 melanoma) of 9.13 µM and a TGI (M14 melanoma) of 23.6 µM. The GI50 (MALME-3M melanoma) was 8.25 µM, the TGI (MALME-3M melanoma) was 24.4 µM and the GI50 (UACC-62 melanoma) was 11 µM. The TGI (UACC-62 melanoma) was 23.9 µM, the GI50 (TK-10 renal) was 0.533 µM and the TGI (TK-10 renal) was 16.3 µM. The GI50 (OVCAR-3 ovarian) was 15.9 µM, the TGI (OVCAR-3 ovarian) was 30.4 µM and the GI50 (HL-60(TB) leukemia) was 0.638 µM. The TGI (HL-60(TB) leukemia) was 24.8 µM, the GI50 (CCRF-CEM leukemia) was 0.707 µM and the TGI (CCRF-CEM leukemia) was > 50.6 µM. It also gave a GI50 (U251 CNS) of 4.25 µM, a TGI (U251 CNS) of 20.3 µM and a GI50 (RPMI-8226 leukemia) of 0.268 µM. For the same compound, the TGI (RPMI-8226 leukemia) was 32.1 µM, the GI50 (HOP-62 NSCLC) was 12.8 µM and the TGI (HOP-62 NSCLC) was 26.2 µM. It also gave a GI50 (MDA-MB-435) of 6.5 µM, a TGI (MDA-MB-435) of 22 µM and a GI50 (MDA-MB-231 breast) of 9.84 µM. For the same compound, the TGI (MDA-MB-231 breast) was 24.9 µM, the GI50 (PC-3 prostate) was 1.74 µM and the TGI (PC-3 prostate) was 20.8 µM. It also gave a GI50 (MOLT-4 leukemia) of 0.548 µM, a TGI (MOLT-4 leukemia) of 24.9 µM and a GI50 (EKVX NSCLC) of 12.5 µM. For the same compound, the TGI (EKVX NSCLC) was 26.3 µM, the GI50 (COLO 205 colon) was 1.33 µM and the TGI (COLO 205 colon) was 17.6 µM. For the same compound, the GI50 (A498 renal) was 4.69 µM, the TGI (A498 renal) was 19.5 µM and the GI50 (SF-295 CNS) was 12.9 µM. The TGI (SF-295 CNS) was 28.9 µM, the GI50 (ACHN renal) was 1.03 µM and the TGI (ACHN renal) was 14.7 µM. The GI50 (CAKI-1 renal) was 1.61 µM, the TGI (CAKI-1 renal) was 17.2 µM and the GI50 (HOP-92 NSCLC) was 0.803 µM. The TGI (HOP-92 NSCLC) was 22.8 µM, the GI50 (SF-268 CNS) was 10.7 µM and the TGI (SF-268 CNS) was 25.3 µM. It also gave a GI50 (OVCAR-8 ovarian) of 12.9 µM, a TGI (OVCAR-8 ovarian) of 28.7 µM and a GI50 (K-562 leukemia) of 3.34 µM. For the same compound, the TGI (K-562 leukemia) was 19.7 µM, the GI50 (T-47D breast) was 14.5 µM and the TGI (T-47D breast) was 32.6 µM. The GI50 (NCI-H23 lung) was 11.1 µM, the TGI (NCI-H23 lung) was 27 µM and the GI50 (SR leukemia) was 1.88 µM. For the same compound, the TGI (SR leukemia) was 20.7 µM, the GI50 (BT-549 breast) was 13.6 µM and the TGI (BT-549 breast) was 27.3 µM. The GI50 (A549 NSCLC) was 3.69 µM, the TGI (A549 NSCLC) was 19.2 µM and the GI50 (HT29 colon) was 0.969 µM. It also gave a TGI (HT29 colon) of 16.8 µM, a GI50 (UO-31 renal) of 2.6 µM and a TGI (UO-31 renal) of 20.1 µM. For the same compound, the GI50 (SK-MEL-2 melanoma) was 11.5 µM, the TGI (SK-MEL-2 melanoma) was 25.3 µM and the GI50 (SK-MEL-28 melanoma) was 12.3 µM. It also gave a TGI (SK-MEL-28 melanoma) of 25.7 µM, a GI50 (SF-539 CNS) of 14.1 µM and a TGI (SF-539 CNS) of 28.3 µM. The GI50 (HS 578T breast) was 14.9 µM, the TGI (HS 578T breast) was 42.2 µM and the GI50 (LOX IMVI melanoma) was 1.46 µM. For the same compound, the TGI (LOX IMVI melanoma) was 19.7 µM, the GI50 (HCC-2998 colon) was 10.6 µM and the TGI (HCC-2998 colon) was 23.9 µM. For the same compound, the GI50 (SN12C renal) was 7.37 µM, the TGI (SN12C renal) was 21.6 µM and the GI50 (DU-145 prostate) was 9.82 µM. The TGI (DU-145 prostate) was 21.7 µM, the GI50 (786-0 renal) was 5.04 µM and the TGI (786-0 renal) was 20.7 µM. The GI50 (SW-620 colon) was 0.332 µM, the TGI (SW-620 colon) was 19.1 µM and the GI50 (SK-MEL-5 melanoma) was 2.58 µM. The TGI (SK-MEL-5 melanoma) was 9.94 µM, the GI50 (RXF 393 renal) was 2.87 µM and the TGI (RXF 393 renal) was 17.2 µM. The GI50 (SK-OV-3 ovarian) was 9.73 µM, the TGI (SK-OV-3 ovarian) was 22.1 µM and the GI50 (NCI-H522 lung) was 13 µM. It also gave a TGI (NCI-H522 lung) of 27.4 µM, a GI50 (SNB-75 CNS) of 10.7 µM and a TGI (SNB-75 CNS) of 23.4 µM. It also gave a GI50 (NCI-H460 lung) of 1.79 µM, a TGI (NCI-H460 lung) of 18.4 µM and a GI50 (OVCAR-5 ovarian) of 8.59 µM. The TGI (OVCAR-5 ovarian) was 22.3 µM, the GI50 (IGROV1 ovarian) was 7.35 µM and the TGI (IGROV1 ovarian) was 25 µM. It also gave a GI50 (UACC-257 melanoma) of 5.51 µM, a TGI (UACC-257 melanoma) of 20.9 µM and a GI50 (KM12 colon) of 0.623 µM. It also gave a TGI (KM12 colon) of 13.9 µM, a GI50 (HCT-15 colon) of 4.41 µM and a TGI (HCT-15 colon) of 20 µM. For the same compound, the GI50 (OVCAR-4 ovarian) was 11.2 µM, the TGI (OVCAR-4 ovarian) was 23.8 µM and the GI50 (NCI/ADR-RES ovarian) was 16.7 µM. The TGI (NCI/ADR-RES ovarian) was 33.8 µM, the GI50 (SNB-19 CNS) was 11.7 µM and the TGI (SNB-19 CNS) was 25.4 µM. It also gave a GI50 (MCF7 breast) of 0.585 µM and a TGI (MCF7 breast) of 18.7 µM.
